How the values were obtained:
starfish = settings: injection of 1-MeAde compared with RGP; cited from earlier work
Excerpt: (§1) Although RGP is the primary mediator of oocyte maturation and ovulation, the effect of RGP is indirect. RGP secreted by radial nerve cords induces ovarian follicle cells to produce 1-methyladenine (1-MeAde) as a maturation-inducing hor ...

[1] = test system: PpeRGPR in P. pectinifera ovarian follicle cells; assay: Competitive binding assay, 125I-PpeRGP versus unlabeled RGP, follicle cell homogenates; set-up: species or system Patiria pectinifera; settings: 2 h at 20°C, four separate assays; for Effect of unlabeled peptide on 125I-PpeRGP binding (result in words): follicle cell homogenates (25 μg of protein), 125I-PpeRGP about 100,000 cpm, final concentration 1.1 pM, total volume 0.5 ml, four animals
Method: Follicle cells were homogenized using a Teflon homogenizer in 25 mM Tris-HCl (pH 7.4) containing 10 mM MgCl2. Protein concentrations were measured using a Bio-Rad protein assay kit (Bio-Rad Laboratories, Hercules, CA, USA).
The radioiodination of PpeRGP with Na^125I (carrier free; GE Healthcare, Buckinghamshire, UK) was carried out at room temperature in accordance with the modified lactoperoxidase method, as described previously. The specific activity of radioiodinated PpeRGP (^125I-PpeRGP) was estimated to be 150 μCi/μg.
The specificity of RGP binding was examined using whole homogenates of follicle cells. Preparations were adjusted to yield a protein concentration of 10 mg/ml with the homogenizing medium plus 0.1% (wt/vol) BSA, and stored at -80°C until use. The binding assay was performed using competition experiments between labeled PpeRGP and unlabeled PpeRGP or AamRGP, as described previously. Data were obtained from four separate assays using follicle cells from ovaries of four different animals.
Fig 3 Competitive inhibition curves of ^125I-PpeRGP binding to Patiria pectinifera ovarian follicle cells in the presence of unlabeled PpeRGP or AamRGP. P. pectinifera ovarian follicle cell homogenates (25 μg of protein) were incubated for 2 h at 20°C in assay buffer containing ^125I-PpeRGP (about 100,000 cpm; 2.087 pg/[…]; total volume 0.5 ml, final concentration 1.1 pM) in the presence of serially diluted unlabeled PpeRGP (●) or AamRGP (○). Specific binding was obtained by subtracting nonspecific binding from total binding. Data were obtained from four separate assays using follicle cells from ovaries of four different animals.

[2] = test system: Patiria pectinifera ovarian follicle cells; assay: 1-MeAde production by follicle cells; type: cell-based; settings: follicle cells (ten million in 1 ml ASW), 2 h at 20°C; 1-MeAde released into medium by biological assay; three independent samples
Method: (§2) Ten million follicle cells were incubated for 2 h at 20°C in 1 ml of ASW in the presence of PpeRGP or AamRGP, with occasional shaking. The cell suspension was then centrifuged at 1,000 g for 1 min and quickly frozen in liquid nitrogen. Supernatants were analyzed for the amount of 1-MeAde released from follicle cells. The concentration of 1-MeAde was determined by a method previously described, using authentic 1-MeAde as the standard reference. The frozen follicle cells were analyzed for the amount of intracellular cAMP using a BIOTRAK cAMP EIA system (GE Healthcare). The mean was determined from three separate assays using three different animals and standard error of the mean (SEM).
(§3) Fig 4 Effect of RGP on 1-MeAde and cAMP production in Patiria pectinifera ovarian follicle cells. (A) Amino acid alignments of A- and B-chains in P. pectinifera (PpeRGP) and Asterias amurensis (AamRGP). To illustrate the conserved features, the amino acid types are color coded according to their properties, with basic residues in blue (Arg, Lys and His), acidic residues in red (Glu and Asp), hydrophobic residues in green (Ala, Val, Ile, Phe, Trp, Tyr, Pro and Met), hydrophilic in black (Ser, Thr, Asn and Gln) and glycine in light blue. The cysteine residues are highlighted in yellow and disulfide bonds are shown with solid dark red lines. […] Intracellular cAMP content was determined by EIA. […]

PpeRGPR = assay: Intracellular calcium mobilization (Fluo-8) in Sf9 cells transfected with Gαq16-fused PpeRGPR; type: cell-based, Patiria pectinifera; settings: for Effect on calcium signaling (result in words): Fluo-8, 490/514 nm
Method: Functional characterization of PpeRGPR was performed using Sf9 cells and baculovirus-based expression methods, as previously reported. The open reading frame (ORF) of human Gαq16 protein (OriGene, Rockville, MD, USA), which couples with GPCRs and triggers intracellular calcium mobilization upon binding of a specific ligand [33] was subcloned into the XbaI site of the pFastbacI plasmid (Invitrogen, Waltham, MA, USA). PpeRGPR was then cloned into the NotI/XbaI site of the Gαq16-ligated pFastbacI plasmids. Transformation of competent cells with the PpeRGPR-Gαq16-pFastbacI plasmid and the resulting bacmid isolation was performed according to the manufacturer’s instructions for the Bac-to-Bac system (Thermo Fisher Scientific, Waltham, MA, USA).
Sf9 cells (Thermo Fisher Scientific) were grown in Sf900 II (Thermo Fisher Scientific) containing 10% FBS (Sigma-Aldrich) at 28°C. PpeRGPR-Gαq16-recombinant baculoviruses were prepared from Sf9 cells transfected with the above bacmids using Cellfectin II (Thermo Fisher Scientific), titrated, isolated, and transiently transfected into Sf9 cells, as previously described. Sf9 cells were plated at 1.2×10^5 cells/well (on a 96-well plate) or 2.4×10^5 cells (on a glass bottom dish) prior to transfection. Forty-eight hours after transfection, Sf9 cells were loaded for 30 min with 2.5 μM of Fluo-8 AM (AAT Bioquest, Sunnyvale, CA, USA) diluted in loading buffer [HBSS supplemented with 1.25 mM probenecid and 0.04% (wt/vol) pluronic F-127] [32]. Cell membrane expression of PpeRGPR-fused human Gαq16 was confirmed by immunostaining using the anti-Gαq16 antibody (OriGene, TA318890) in comparison with non-transfected Sf9 cells (wild type). Dose-dependent responses to PpeRGP or AamRGP were measured using a FlexStation II-automated apparatus (Molecular Devices, San Jose, CA, USA) at the excitation/emission wavelengths of 490/514 nm. Calcium accumulation data were analyzed using Prism v6 (GraphPad Software, San Diego, CA, USA) to fit to a sigmoidal concentration-response curve, as previously described. The dose-response curve was statistically evaluated by analysis of variance. Significant activation of PpeRPGR by PpeRGP compared with AamRGP at each concentration was also examined by Student t test.
Fig 2 Intracellular calcium mobilization in Sf9 cells. (A, B) Sf9 cells were transfected with Gαq16- fused PpeRGPR-recombinant baculovirus (A) and non-transfected Sf9 cells were used as wild type controls (B). Expression of PpeRGPR in Sf9 cells was examined by immunostaining using an anti-Gαq16 antibody. Immunoreactivity was observed using a fluorescence microscope after incubation with an Alexa Fluor 488-conjugated secondary antibody. […] Scale bars represent 50 μm. […] Each dose-response curve was statistically evaluated by analysis of variance. […]

[3] = test system: Patiria pectinifera ovarian follicle cells; assay: Intracellular cAMP production in follicle cells; type: cell-based; settings: follicle cells (ten million in 1 ml ASW), 2 h at 20°C; intracellular cAMP by EIA; three independent samples
Method: as §2, §3

P. pectinifera ovaries = settings: approximately; in vitro spawning; read-out: Median effective concentration of in vitro spawning; cited from earlier work
Excerpt: Since cDNA encoding the PpeRGPR was cloned from P. pectinifera follicle cells (Fig 1), PpeRGPR should be expressed on follicle cell surface. […] In contrast to PpeRGP, AamRGP had no effects on binding to P. pectinifera follicle cells (Fig 3), as well as 1-MeAde and cAMP production (Fig 4B) or calcium signals in PpeRGPR-expressing Sf9 cells (Fig 2C). […] Based on 3D structural models, P^A17 of PpeRGP and R^A18 of AamRGP are located near their respective B-cha ...

[4] = test system: ovarian fragments of P. pectinifera; settings: synthetic PpeRGP, within 30 min of incubation; cited from earlier work
Excerpt: as §1

[5] = test system: males and females of P. pectinifera; settings: injection of synthetic PpeRGP into males and females with fully-grown testes and ovaries; cited from earlier work
Excerpt: as §1

[6] = test system: Patiria pectinifera ovarian follicle cells; settings: isolated follicle cells cultured with PpeRGP, cited from earlier work
Excerpt: However, the RGP receptor (RGPR) remains to be identified in s ...

[7] = test system: membrane preparation of ovarian follicle cells of P. pectinifera; settings: cited from earlier work
[8] = Sf9 cells with Gαq16-fused PpeRGPR, three to seven independent samples

Compound	Interval preceding the discharge of gametes after injection (result in words) (starfish)	Effect of unlabeled peptide on 125I-PpeRGP binding (result in words) [1]	Effect on 1-MeAde production (result in words) [2]	Effect on calcium signaling (result in words) (PpeRGPR; [8])	Effect on cAMP production (result in words) [3]	Kd ([1]; Scatchard plot analysis, follicle cell homogenates, 125I-PpeRGP, read-out: Dissociation constant (Kd)) [nM]	EC50 (P. pectinifera ovaries) [nM]	Induction of oocyte maturation and ovulation (result in words) [4]	Spawning behavior and spawning after injection (result in words) [5]	EC50 (PpeRGPR; Sf9 cells transfected with Gαq16-fused PpeRGPR baculovirus, 48 h, Fluo-8 AM 2.5 μM, FlexStation II, 490/514 nm, sigmoidal fit, three to seven independent samples, read-out: EC50, calcium signaling) [nM]	Concentration above which calcium signaling is significantly increased (PpeRGPR; Sf9 cells with Gαq16-fused PpeRGPR, Fluo-8)	1-MeAde production in isolated follicle cells (result in words) ([6]; coinciding with cAMP increase)	cAMP production in isolated follicle cells (result in words) [6]	Binding to follicle cell membrane preparation (result in words) [7]
Cn1cnc2ncnc-2c1N [1-MeAde, 1-methyladenine]	almost equal to those found after injection of RGP													
relaxin-like gonad-stimulating peptide of Asterias amurensis [AamRGP, reference compound]		no effect on ^125I-PpeRGP binding	no effects	no effect on calcium signaling	no effects									
relaxin-like gonad-stimulating peptide of Patiria pectinifera [PpeRGP]		decreased in a dose-dependent manner		significantly increased calcium signaling at concentrations above 1 nM in a dose-dependent manner		~0.67	1 to 2	induced oocyte maturation and ovulation	spawning behavior and subsequent spawning were observed	11.1	above 1 nM	increase	dose-related increase	binds specifically

Source: PMC7682835, “A novel G protein-coupled receptor for starfish gonadotropic hormone, relaxin-like gonad-stimulating peptide” (PLoS ONE, 2020)
